Experimental data published in patent US20210330611A1, “THERAPY FOR NEUROLOGICAL DISEASES/DISORDERS” (priority 2020, published 2021).
Where a name gives a salt, the structure may show the parent alone. Read-outs that look alike come from different tables or passages of the source.

How the values were obtained:
[1] = tested on: fibrin-induced microglia activation; test: Image-based assay of fibrin-induced microglia activation (HTS and dose response); format: cell-based, rat; conditions: primary microglia HTS, fibrin stimulation; for inhibition at 10 µM: Rattus norvegicus, Microglia, read-out: Fibrin % inhibition
[2] = tested on: LPS-induced microglia activation; test: Image-based assay of LPS-induced microglia activation (HTS and dose response); format: cell-based, rat; conditions: for inhibition at 10 µM: Rattus norvegicus, Microglia, read-out: LPS % inhibition
[3] = tested on: fibrin- and LPS-induced microglia activation; test: cells; format: cell-based, rat
primary rat microglia [4] = tested on: primary rat microglia
primary rat microglia [5] = test: Cell toxicity (dead cells, size <150 μm2) in coated fibrin (cFib) assay; conditions: primary microglia HTS;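 also: share of dead cells sized under 150 µm2 at 10 µM in fibrin-stimulated microglia HTS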
[6] = primary microglia HTS, LPS stimulation, compounds at 10 μM
[7] = quadrant by fibrin and LPS inhibition, HTS at 10 μM
[8] = fibrin assay, dead cells (size <150 μm2)
[9] = classification by fibrin and LPS inhibition, HTS at 10 μM
[10] = fibrin assay, dead cells (size <150 μm2), compounds at 10 μM
[11] = cell size >800 μm2 as marker of activation
[12] = classification by fibrin and LPS inhibition in HTS
[13] = fibrin stimulation, cell size <150 μm2 as marker of toxicity

SMILES	inhibition at 10 µM ([1]; compounds at 10 μM)	inhibition at 10 µM [2, 6]	LPS % cell toxicity (primary rat microglia [4]; rat)	Quadrant (FIG. 5b) [3, 12]	Fibrin % cell toxicity (primary rat microglia [5]; [13])	inhibition at 10 µM [1, 11]	also measured
C[C@@H]1C[C@H]2[C@@H]3CCC4=CC(=O)C=C[C@]4(C)[C@@]3(Cl)[C@@H](O)C[C@]2(C)[C@@]1(OC(=O)c1ccco1)C(=O)CCl [Mometasone Furoate]	100%	106%	4%	–	–	–	Quadrant (FIG. 5b) [3, 7]: Q2; Fibrin % cell toxicity (primary rat microglia [5]; [8]): 3%
C=CCN=C=S [Allylisothiocyanate]	11%	18%	0%	–	–	–	Quadrant (FIG. 5b) [3, 7]: Q4; Fibrin % cell toxicity (primary rat microglia [5]; [8]): 1%
CC(=O)Oc1cccc2c1C(=O)c1c(OC(C)=O)cc(C(=O)O)cc1C2=O [Diacerin]	–	–	–	–	–	–	Fibrin % inhibition ([1]; compounds at 10 μM): −30%; LPS % inhibition [2, 6]: 10%; Quadrant (FIG. 5b) [3, 9]: Q4; LPS % cell toxicity (primary rat microglia [4]): 0%; Fibrin % cell toxicity (primary rat microglia [5]; [10]): 1%
C[C@H](CCC(=O)[O-])[C@H]1CC[C@H]2[C@@H]3C(=O)C[C@@H]4CC(=O)CC[C@]4(C)[C@H]3CC(=O)[C@]12C.[Na+]	–	–	–	Q4	1%	–	Fibrin % inhibition [1, 11]: 21%; LPS % inhibition [2]: 28%; LPS % cell toxicity (primary rat microglia [4]): 1%
CO[C@H]1/C=C/O[C@@]2(C)Oc3c(C)c(O)c4c(O)c(c(/C=N/N5CCN(C6CCCC6)CC5)c(O)c4c3C2=O)NC(=O)/C(C)=C\C=C\[C@H](C)[C@H](O)[C@@H](C)[C@@H](O)[C@@H](C)[C@H](OC(C)=O)[C@@H]1C [Rifapentine]	–	–	0%	Q4	1%	-23%	inhibition at 10 µM ([2]; 48 h): -7%
CC(O)(CC(=O)O)CC(=O)O [3-Hydroxy-3-Methyl-Glutaric Acid]	9%	8%	0%	–	–	–	Quadrant (FIG. 5b) [3, 7]: Q4; Fibrin % cell toxicity (primary rat microglia [5]; [8]): 0%
Cc1onc(-c2c(Cl)cccc2Cl)c1C(=O)N[C@@H]1C(=O)N2[C@@H]1SC(C)(C)[C@@H]2C(=O)O [Dicloxacillin]	-23%	14%	0%	–	–	–	Quadrant (FIG. 5b) [3, 9]: Q4; Fibrin % cell toxicity (primary rat microglia [5]; [10]): 0%
CC(=O)Nc1ccc(C(=O)O)cc1 [4-acetamidobenzoic acid]	32%	42%	0%	–	–	–	Quadrant (FIG. 5b) [3, 7]: Q4; Fibrin % cell toxicity (primary rat microglia [5]; [8]): 1%
O=C(O)CN(CCN(CC(=O)O)CC(=O)O)CCN(CC(=O)O)CC(=O)O	–	–	–	Q4	0%	–	Fibrin % inhibition [1, 11]: 11%; LPS % inhibition [2]: −2%; LPS % cell toxicity (primary rat microglia [4]): 0%
Cc1ncc([N+](=O)[O-])n1CC(C)O (stereo not drawn) [Secnidazole]	–	–	2%	Q4	1%	-24%	inhibition at 10 µM ([2]; 48 h): 22%
CCN1C[C@]2(COC)[C@H](O)C[C@H](OC)[C@@]34[C@@H]5C[C@@]6(O)[C@H](OC(=O)c7ccccc7)[C@@H]5[C@@](OC(C)=O)([C@@H]([C@H](OC)[C@H]23)[C@@H]14)[C@@H](O)[C@@H]6OC [Aconitine]	-23%	12%	0%	–	–	–	Quadrant (FIG. 5b) [3, 7]: Q4; Fibrin % cell toxicity (primary rat microglia [5]; [8]): 0%
Cc1nc2ccccn2c(=O)c1CCN1CCC(C(=O)c2ccc(F)cc2)CC1 [Pirenperone]	–	–	0%	Q4	1%	2%	inhibition at 10 µM ([2]; 48 h): 20%
CCCCCCCCNC(C)C(O)c1ccc(SC(C)C)cc1 (stereo not drawn) [Suloctidil]	112%	3%	0%	–	–	–	Quadrant (FIG. 5b) [3, 7]: Q3; Fibrin % cell toxicity (primary rat microglia [5]; [8]): 90%
CN1C[C@H](C(=O)N[C@]2(C)O[C@@]3(O)[C@@H]4CCCN4C(=O)[C@H](Cc4ccccc4)N3C2=O)C=C2c3cccc4[nH]cc(c34)C[C@H]21 [Ergotamine Tartrate]	–	–	1%	–	–	–	Fibrin % inhibition ([1]; compounds at 10 μM, 10 µM): 31%; LPS % inhibition ([2]; primary microglia HTS, LPS stimulation, compounds at 10 μM, 10 µM): 22%; Quadrant (FIG. 5b) [3, 9]: Q4; Fibrin % cell toxicity (primary rat microglia [5]; [10]): 0%
CCCCc1ncc(/C=C(\Cc2cccs2)C(=O)O)n1Cc1ccc(C(=O)O)cc1 [Eprosartan]	-29%	-8%	0%	–	–	–	Quadrant (FIG. 5b) [3, 9]: Q4; Fibrin % cell toxicity (primary rat microglia [5]; [10]): 1%
Cn1c([N+](=O)[O-])cnc1COC(N)=O [Ronidazole]	–	–	0%	Q4	1%	31%	inhibition at 10 µM ([2]; 48 h): 20%
CC(CN1c2ccccc2Sc2ccccc21)N(C)C (stereo not drawn) [Promethazine]	–	–	0%	Q4	0%	-30%	inhibition at 10 µM ([2]; 48 h): 5%
CN[C@@H]1[C@@H](O)[C@@H](O[C@@H]2[C@@H](O)[C@H](O[C@H]3OC(CN)=CC[C@H]3N)[C@@H](N)C[C@H]2N)OC[C@]1(C)O [Sisomicin Sulfate]	–	–	0%	Q4	0%	-41%	inhibition at 10 µM ([2]; 48 h): 10%
OC1(c2ccc(Cl)c(C(F)(F)F)c2)CCN(CCCC(c2ccc(F)cc2)c2ccc(F)cc2)CC1 [Penfluridol]	–	–	0%	Q4	1%	3%	inhibition at 10 µM ([2]; 48 h, primary microglia HTS, LPS stimulation, cell size >800 μm2 as marker of activation): 8%
CN1CCC(=C2c3ccccc3Sc3ccccc32)CC1 [Pimethixene Maleate]	112%	92%	2%	–	–	–	Quadrant (FIG. 5b) [3, 7]: Q2; Fibrin % cell toxicity (primary rat microglia [5]; [8]): 6%
O=C1OC2(c3ccccc31)c1cc(I)c(O)c(I)c1Oc1c2cc(I)c(O)c1I [Erythrosine Sodium]	1%	0%	0%	–	–	–	Quadrant (FIG. 5b) [3, 9]: Q4; Fibrin % cell toxicity (primary rat microglia [5]; [10]): 1%
NCC(O)CC(=O)O (stereo not drawn) [Aminohydroxybutyric Acid]	–	–	–	–	–	–	Fibrin % inhibition ([1]; compounds at 10 μM): −4%; LPS % inhibition [2, 6]: 17%; Quadrant (FIG. 5b) [3, 7]: Q4; LPS % cell toxicity (primary rat microglia [4]): 0%; Fibrin % cell toxicity (primary rat microglia [5]; [8]): 1%
CC1CC(OC(=O)C(O)c2ccccc2)CC(C)(C)C1 (stereo not drawn) [Cyclandelate]	-57%	4%	0%	–	–	–	Quadrant (FIG. 5b) [3, 9]: Q4; Fibrin % cell toxicity (primary rat microglia [5]; [10]): 0%
OC(CCN1CCCC1)(c1ccccc1)C1CCCCC1 (stereo not drawn) [Procyclidine]	–	–	1%	Q4	1%	0%	inhibition at 10 µM ([2]; 48 h): 26%
OC(CCCN1CCCCC1)(c1ccccc1)c1ccccc1 [Diphenidol]	-34%	-5%	0%	–	–	–	Quadrant (FIG. 5b) [3, 9]: Q4; Fibrin % cell toxicity (primary rat microglia [5]; [10]): 1%
CN1CC(=O)NC1=N [Creatinine]	-3%	10%	0%	–	–	–	Quadrant (FIG. 5b) [3, 9]: Q4; Fibrin % cell toxicity (primary rat microglia [5]; [10]): 1%
Cc1oc(=O)oc1CN1CCN(c2cc3c(cc2F)c(=O)c(C(=O)O)c2n3C(C)S2)CC1 (stereo not drawn) [Prulifloxacin]	–	–	0%	Q4	1%	7%	inhibition at 10 µM ([2]; 48 h): 16%
